Usually AUC(0-t) stands for the area under the concentration-time curve up to a stated or last time point. The low end stands for less exposure, the high end for more exposure. In general, half-life refers to the time needed for the level to fall by half in the phase considered. Broadly, the Cmax is the maximum level reached in the sampled fluid or tissue. Usually Tmax stands for the time at which the peak concentration occurs.

On the set-up of data set [1]: method as in PMID 20686523, PMID 23542670. To be noted: plasma concentration peak; cited from earlier work.
Data set [2] can be described thus: Pharmacokinetic study of four steroidal saponins in rat plasma after oral administration of A. asphodeloides fractions (UPLC-MS/MS). Format: in vivo, Sprague-Dawley rats. To be noted: rat, in vivo, po; for AUC(0-t) / half-life / Cmax / Tmax: male, Sprague-Dawley, 400 mg/kg. As for the experimental part: The dried A. asphodeloides were chopped into slices before using. The A. asphodeloides was immersed in water (1:10, w/v) and extracted twice by refluxing for 2 h. After filtration, the supernatant was condensed to a certain volume under reduced pressure, and 95% ethanol was added to the water extract filtrates until the concentration of ethanol was 80%. The precipitate was filtered as the macromolecular fraction (MF), the ethanol supernatant was concentrated under reduced pressure to a certain volume under vacuum and then purified by gradient elution with water, 40% ethanol and 70% ethanol from an AB-8 MARO porous resin column and then the water-eluted fraction was combined with the 40% ethanol-eluted fraction as the small molecule fraction (SF) and the 70% ethanol eluted fraction was the A. asphodeloides saponins extract (ASE). All of the residues were lyophilized and the resulting dry powder was stored at 4 °C before usage. The contents of four steroidal saponins in ASE dry powder were measured quantitatively by the external standard method using the same chromatography conditions as described above. The contents of timosaponin BII, anemarsaponin BIII, timosaponin AIII and timosaponin E1 in ASE were 429.12, 89.81, 59.13 and 41.25 mg/g, respectively.
Frozen plasma samples were unfrozen at room temperature and treated as follows: to each 200 µL plasma sample, 20 µL of IS (920 ng/mL ginsenoside Re) working solution and 600 µL of acetonitrile were added. After vortexing for 2 min and centrifugation at 13,000 rpm at 4 °C for 10 min the supernatant was transferred into a new tube and evaporated to dryness in a rotary evaporator at 39 °C and the residue was reconstituted in 100 µL of 0.1% formic acid–acetonitrile (50:50, v/v), vortexed for 2 min and centrifuged at 13,000 rpm at 4 °C for 10 min. The supernatant was transferred to an autosampler vial and an aliquot of 2 μL was injected onto the UPLC-MS/MS system for analysis.
Male Sprague-Dawley rats (250–280 g) were obtained from the Shanghai Slac Laboratory Animal Co., Ltd. (Shanghai, China). All animals were kept in an environmentally controlled breeding room (temperature: 20–25 °C, humidity: 55%–65%) for 1 week before the experiments started. Animal welfare and experimental procedures were strictly in accordance with the ethical norms of the Nanjing University of Chinese Medicine. All rats were fasted for 12 h with free access to water prior to the experiments, twenty-four rats were divided into four groups and then were given a single dose of ASE, ASE-SF, AS-MF, AS-M-SF. A 40 mg/mL ASE (the amount of MF, SF added to group AS-MF, ASE-SF, AS-M-SF were based on the proportion extracted from A. asphodeloides) aqueous solution in each group was administered orally at a dose of 400 mg/kg, which contained 171.61, 35.92, 23.62, 16.53 mg/kg of timosaponin BII, anemarsaponin BIII, timosaponin AIII, timosaponin E1, respectively.
About 400 μL blood samples were collected from venipuncture before intragastric gavage and at 0.083, 0.25, 0.5, 1, 1.5, 2, 4, 6, 8, 10, 12, 24 h after a single oral administration. The blood samples were immediately transferred to heparinized tubes and centrifuged at 3000 rpm for 10 min, and the supernatant was transferred into 2.0 mL Eppendorf tubes and stored at −80 °C prior to analysis. Blank plasma was obtained from the rat without oral administration and was used to investigate the assay development and validation.
To calculate the pharmacokinetic parameters of analytes in different group, concentrations–time dada were analyzed by DAS 3.2 software (Mathematical Pharmacology Professional Committee of China, Shanghai, China, 2011). Data were measured as the mean ± standard deviation (S.D.) with triplicate measurements. The identification of significances between different groups was executed with Student’s t-test. A p value < 0.05 was considered statistically significant.

Read-outs that look alike come from different tables or passages of the source.

For the molecule `C[C@H]1CC[C@@]2(OC1)O[C@H]1C[C@H]3[C@@H]4CC[C@@H]5C[C@@H](O)CC[C@]5(C)[C@H]4CC[C@]3(C)[C@H]1[C@@H]2C` [sarsasapogenin], the “shape of plasma concentration-time curve” value in data set [1] is recorded as “single plasma concentration peak”.

For `CC1=C(CCC(C)COC2OC(CO)C(O)C(O)C2O)OC2CC3C4CCC5CC(OC6OC(CO)C(O)C(O)C6OC6OC(CO)C(O)C(O)C6O)CCC5(C)C4CCC3(C)C12` (centres unmarked) [Anemarsaponin BIII, anemarsaponin BIII], in data set [2], the AUC(0-t) was found to be 551 ± 75 ng·h/mL, the half-life is 7.63 ± 3.37 h, the concentration peaked (Cmax) at 34.5 ± 3.75 ng/mL and the Tmax worked out at 3.75 ± 1.78 h. Moreover, in data set [2], the T1/2 result is reported as “no obvious difference” and the “shape of plasma concentration-time curve” value is “double peak”. In addition, in data set [2] (AUC0–t), the AUC(0-t) is 257 ± 20.4 ng·h/mL. The half-life in data set [2] (T1/2) was 2.75 ± 1.14 h.

For `CC(CCC1(O)OC2C(O)C3C4CCC5CC(OC6OC(CO)C(O)C(O)C6OC6OC(CO)C(O)C(O)C6O)CCC5(C)C4CCC3(C)C2C1C)COC1OC(CO)C(O)C(O)C1O` (centres unmarked) [Timosaponin E1, timosaponin E1], in data set [2], the AUC(0-t) is 286 ± 36.8 ng·h/mL, the half-life was 8.8 ± 3.83 h, the concentration peaked (Cmax) at 18.9 ± 1.54 ng/mL and the time to peak (Tmax) turned out to be 4 h. Further, in data set [2], the T1/2 result is on record as “no obvious difference” and the “shape of plasma concentration-time curve” value was “double peak”. The molecule further showed an AUC(0-t) in data set [2] (AUC0–t) of 115 ± 5.35 ng·h/mL. The molecule further gave a half-life in data set [2] (T1/2) of 2.95 ± 0.4 h.
